Results on 21 compounds are retold here after PubChem BioAssay AID296 (DTP/NCI, 2004).

In the assay the test system is MX-1 breast xenograft, nude mice, tumor weight T/C. In words: NCI In Vivo Anticancer Drug Screen. Data for tumor model Human Mammary Carcinoma MX-1 Xenograft (intrarenal inoculation) in NU/NU Swiss (nude) mice. The following applies: endpoint: mean tumor weight change, higher = larger tumour. The method, boiled down: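 Read-out: treated (T) over vehicle control (C) ratio of survival or tumor size. Dosing in animals carrying the transplanted tumor.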

Setting [1] is: dose: 600.0 mg/kg/injection, schedule: Q04DX003 (sc), vehicle: Klucel (hydroxypropylcellulose) (HPC).
Where [2] appears, read: dose: 2400.0 mg/kg/injection, schedule: Q04DX003 (sc), vehicle: Klucel (hydroxypropylcellulose) (HPC).
Setting [3] is: dose: 300.0 mg/kg/injection, schedule: Q04DX003 (sc), vehicle: saline.
The mark [4] stands for this setting: dose: 50.0 mg/kg/injection, schedule: Q01DX010 (sc), vehicle: saline with Tween-80.
The mark [5] stands for this setting: dose: 100.0 mg/kg/injection, schedule: Q01DX010 (sc), vehicle: saline with Tween-80.
[6] abbreviates: dose: 200.0 mg/kg/injection, schedule: Q01DX010 (sc), vehicle: saline with Tween-80.
[7] abbreviates: dose: 400.0 mg/kg/injection, schedule: Q01DX010 (sc), vehicle: saline with Tween-80.
The mark [8] stands for this setting: dose: 150.0 mg/kg/injection, schedule: Q04DX003 (sc), vehicle: saline with Tween-80.

Several values for one entry are separate records, joined by “and”; a condition that tells them apart may be missing. Identical values can stand only once. Results filed as inconclusive are left out. *1 amine or outer side, *2 acyl side, *3 side chain or, on linkers, in order; H or OH if unused. Where a SMILES comes first, the peptide text is derived from it. Bridges are numbered along the chain shown (N, C = ends). Roman numbers before positions name the chains, in order. [ ]: non-standard residue; d: D form. Actinocin(9to1) = Cc1c2oc3c(C)ccc(C(=O)[*:1])c3nc-2c(C(=O)[*:2])c(N)c1=O; aThr = C[C@H](O)[C@H](N)C(=O)O; NMeV = CN[C@H](C(=O)O)C(C)C; Sar = CNCC(=O)O

As for `O=C(O)C1(NO)CCCCC1`, the T/C was 110 % of control (dose: 200.0 mg/kg/injection, schedule: Q04DX003 (sc), vehicle: Klucel (hydroxypropylcellulose) (HPC)); 100 % of control (dose: 400.0 mg/kg/injection, schedule: Q04DX003 (sc), vehicle: Klucel (hydroxypropylcellulose) (HPC)); 123 % of control (dose: 800.0 mg/kg/injection, schedule: Q04DX003 (sc), vehicle: Klucel (hydroxypropylcellulose) (HPC)); 64 % of control (dose: 1600.0 mg/kg/injection, schedule: Q04DX003 (sc), vehicle: Klucel (hydroxypropylcellulose) (HPC)).

Take `O=c1[nH]c(=O)n(C2CC(O)C(CO)O2)cc1Br` (stereo unspecified): the T/C is, setting by setting: under setting [1], 91 % of control; (dose: 1200.0 mg/kg/injection, schedule: Q04DX003 (sc), vehicle: Klucel (hydroxypropylcellulose) (HPC)) 80 % of control; under setting [2], 59 % of control; (dose: 4800.0 mg/kg/injection, schedule: Q04DX003 (sc), vehicle: Klucel (hydroxypropylcellulose) (HPC)) 27 % of control.

Take `Nc1cc2c3c(cccc3c1)C(=O)N(CCN1CCCC1)C2=O`: the T/C (dose: 25.0 mg/kg/injection, schedule: Q04DX003 (sc), vehicle: saline with Tween-80) was 60 % of control; the T/C (dose: 50.0 mg/kg/injection, schedule: Q04DX003 (sc), vehicle: saline with Tween-80) was 60 % of control; the T/C (dose: 100.0 mg/kg/injection, schedule: Q04DX003 (sc), vehicle: saline with Tween-80) was 120 % of control; the T/C (dose: 200.0 mg/kg/injection, schedule: Q04DX003 (sc), vehicle: saline with Tween-80) is 119 % of control.

As for `CC1(C)CC23C4COC(=O)C2CCC1C3CC4=O` (stereo unspecified), the T/C reads like this: (dose: 300.0 mg/kg/injection, schedule: Q04DX003 (sc), vehicle: DMSO) 108 % of control; (dose: 600.0 mg/kg/injection, schedule: Q04DX003 (sc), vehicle: DMSO) 82 % of control; (dose: 1200.0 mg/kg/injection, schedule: Q04DX003 (sc), vehicle: DMSO) 104 % of control; (dose: 2400.0 mg/kg/injection, schedule: Q04DX003 (sc), vehicle: DMSO) 74 % of control.

On to `C=C(C)[C@]12CC(C)C34OC(/C=C\C=C\CCCCCCCCC)(O[C@@H]1[C@@H]3[C@@H]1O[C@]1(CO)[C@@H](O)[C@]1(O)C(=O)C(C)=C[C@@H]41)O2` (stereo partly specified), for which the T/C is 102 % of control (dose: 6.0 mg/kg/injection, schedule: Q04DX003 (sc), vehicle: distilled water + alcohol) and 95 % of control (dose: 12.0 mg/kg/injection, schedule: Q04DX003 (sc), vehicle: distilled water + alcohol).

In the case of `O=P1(NCCCl)OCCCN1CCCl` (stereo unspecified), the T/C is -95 % of control and -100 % of control (dose: 150.0 mg/kg/injection, schedule: Q04DX003 (sc), vehicle: saline); -100 % of control under setting [3].

For `Cc1cc(NCCCCCCNc2cc(C)nc3cc(N(C)C)ccc23)c2ccc(N(C)C)cc2n1`, the T/C (dose: 37.5 mg/kg/injection, schedule: Q04DX003 (sc), vehicle: distilled water + Tween-80 + alcohol) is 34 % of control; the T/C (dose: 75.0 mg/kg/injection, schedule: Q04DX003 (sc), vehicle: distilled water + Tween-80 + alcohol) is 49 % of control; the T/C (dose: 150.0 mg/kg/injection, schedule: Q04DX003 (sc), vehicle: distilled water + Tween-80 + alcohol) was 49 % of control; the T/C (dose: 300.0 mg/kg/injection, schedule: Q04DX003 (sc), vehicle: distilled water + Tween-80 + alcohol) is 30 % of control.

Regarding `O=CC=O`, the T/C reads like this: under setting [4], 109 % of control; under setting [5], 74 % of control; under setting [6], 100 % of control; under setting [7], 60 % of control.

Consider `O=CN(SSN(C=O)C1CCCCC1)C1CCCCC1`, for which the T/C under setting [4] was 69 % of control, the T/C under setting [5] is 83 % of control, the T/C under setting [6] was 53 % of control and the T/C under setting [7] was 34 % of control.

Turning to `Brc1ccc(C[N+]23CN4CN(CN(C4)C2)C3)cc1`, the T/C is, setting by setting: (dose: 75.0 mg/kg/injection, schedule: Q04DX003 (sc), vehicle: saline with Tween-80) 84 % of control; under setting [8], 99 % of control; (dose: 300.0 mg/kg/injection, schedule: Q04DX003 (sc), vehicle: saline with Tween-80) 89 % of control; (dose: 600.0 mg/kg/injection, schedule: Q04DX003 (sc), vehicle: saline with Tween-80) 73 % of control.

For the compound `Nc1cccc(=O)[nH]1`, the T/C is, setting by setting: under setting [3], 92 % of control; (dose: 600.0 mg/kg/injection, schedule: Q04DX003 (sc), vehicle: saline) 95 % of control; (dose: 1200.0 mg/kg/injection, schedule: Q04DX003 (sc), vehicle: saline) 102 % of control.

Take `CC(=O)N(C)C`: the T/C (dose: 168.75 mg/kg/injection, schedule: Q04DX003 (sc), vehicle: saline) was 81 % of control; the T/C (dose: 337.5 mg/kg/injection, schedule: Q04DX003 (sc), vehicle: saline) is 100 % of control; the T/C (dose: 675.0 mg/kg/injection, schedule: Q04DX003 (sc), vehicle: saline) was 85 % of control; the T/C (dose: 1350.0 mg/kg/injection, schedule: Q04DX003 (sc), vehicle: saline) was 61 % of control.

As to `O=C(O)CCCCCCCC(=O)O`, the T/C was 151 % of control (dose: 300.0 mg/kg/injection, schedule: Q04DX003 (sc), vehicle: distilled water + Tween-80); 150 % of control (dose: 600.0 mg/kg/injection, schedule: Q04DX003 (sc), vehicle: distilled water + Tween-80); 80 % of control (dose: 1200.0 mg/kg/injection, schedule: Q04DX003 (sc), vehicle: distilled water + Tween-80).

Turning to `c1cc2n(n1)CCN2`, under “dose: 50.0 mg/kg/injection, schedule: Q01DX010 (sc), vehicle: saline”, the T/C is 75 % of control and 77 % of control.

For the compound `COc1cccc2c1C(=O)c1c(O)c3c(c(O)c1C2=O)C[C@@](O)(C(=O)CO)C[C@@H]3OC1CC(N(C)C)C(O)C(C)O1` (stereo partly specified), the T/C was 211 % of control (dose: 3.0 mg/kg/injection, schedule: Q01DX010 (sc), vehicle: water) and 227 % of control (dose: 6.0 mg/kg/injection, schedule: Q01DX010 (sc), vehicle: water).

On to `Cc1c2oc3c(C)ccc(C(=O)N[C@@H]4C(=O)N[C@H](C(C)C)C(=O)N5CCC[C@H]5C(=O)N(C)CC(=O)N(C)[C@@H](C(C)C)C(=O)O[C@H]4C)c3nc-2c(C(=O)N[C@@H]2C(=O)N[C@H](C(C)C)C(=O)N3CCC[C@H]3C(=O)N(C)CC(=O)N(C)[C@@H](C(C)C)C(=O)O[C@H]2C)c(N)c1=O` (I: [aThr][dV]P[Sar][NMeV] / II: [aThr][dV]P[Sar][NMeV]; ester I:1-I:C, II:1-II:C; linker I:N-II:N via Actinocin(9to1)), for which the T/C (dose: 0.25 mg/kg/injection, schedule: Q04DX003 (sc), vehicle: saline) is 34 % of control; the T/C (dose: 0.5 mg/kg/injection, schedule: Q04DX003 (sc), vehicle: saline) was 11 % of control; the T/C (dose: 1.0 mg/kg/injection, schedule: Q04DX003 (sc), vehicle: saline) was -46 % of control; the T/C (dose: 50.0 micrograms/kg/injection, schedule: Q01DX010 (sc), vehicle: saline) is 76 % of control; the T/C (dose: 100.0 micrograms/kg/injection, schedule: Q01DX010 (sc), vehicle: saline) is 23 % of control and 28 % of control and 33 % of control; the T/C (dose: 200.0 micrograms/kg/injection, schedule: Q01DX010 (sc), vehicle: saline) was 1 % of control and 18 % of control.

Take `O=C1NCC(Br)C(=O)N1` (stereo unspecified): the T/C under setting [8] is 100 % of control.

With `O=CC(O)C(O)C(O)C(O)C(=O)O.[NH-]C1CCCCC1[NH-].[Pt+2]` (stereo unspecified), the T/C (dose: 9.38 mg/kg/injection, schedule: Q04DX003 (sc), vehicle: suspension in saline) is 48 % of control and the T/C (dose: 18.75 mg/kg/injection, schedule: Q04DX003 (sc), vehicle: suspension in saline) was 28 % of control.

Regarding `Cc1ccc(C2NC(=S)N3C(c4ccc(C)cc4)NC(=S)N23)cc1` (stereo unspecified), the T/C is 91 % of control (dose: 300.0 mg/kg/injection, schedule: Q04DX003 (sc), vehicle: Klucel (hydroxypropylcellulose) (HPC)); 112 % of control under setting [1]; 89 % of control under setting [2].

`C[n+]1c(/C=C\C=C\N2CCCCC2)sc2ccccc21`: the T/C is, setting by setting: (dose: 0.75 mg/kg/injection, schedule: Q04DX003 (sc), vehicle: Klucel (hydroxypropylcellulose) (HPC)) 84 % of control; (dose: 1.5 mg/kg/injection, schedule: Q04DX003 (sc), vehicle: Klucel (hydroxypropylcellulose) (HPC)) 93 % of control.

For the compound `Nc1ncc(C2OC(CO)C(O)C2O)c(=O)[nH]1` (stereo unspecified), the T/C was 53 % of control (dose: 150.0 mg/kg/injection, schedule: Q04DX003 (ip), vehicle: saline); 35 % of control (dose: 300.0 mg/kg/injection, schedule: Q04DX003 (ip), vehicle: saline); 25 % of control (dose: 600.0 mg/kg/injection, schedule: Q04DX003 (ip), vehicle: saline).
